Assays:
Solubility Assay (HPLC) = assay type: physicochemical; details: 20 mM HEPES, 100 mM NaCl, pH 7.5, 18-24 hours at ambient temperature
Method: A 20 mM stock solution was made for each compound in DMSO. To measure solubility, 0.03-0.05 mL of the stock was added to 0.27 mL 20 mM HEPES, 100 mM NaCl, pH 7.5. The solution was mixed and rotated 18-24 hours at ambient temperature. The next day, solutions were centrifuged for 10 min at 20,000×g at 24° C. to remove insoluble, solid material. Next, 100 μL of the supernatant containing the soluble compound was added to 900 μL DMSO and High Performance Liquid Chromatography was performed as described in Table 1 and either HPLC gradient 1 (Table 2) or HPLC gradient 2 (Table 3). For each analog, a 200 μM standard and a 20 μM standard were prepared and run in parallel (standards were dissolved completely in 100% DMSO). The amount of compound in the experimental sample was calculated by comparing the area under the curve for compound peak to the area for the closest standard and correcting for dilution.

[1] = test system: SK-OV-3 ovarian cancer cells; assay: Cellular Activity Assay (cytotoxicity, crystal violet); assay type: cell-based; details: Homo sapiens; SK-OV-3 cells, 48 hr treatment, 0.1-100 μM, crystal violet absorbance at 540 nm
Excerpt: To test the activity of compounds, two complimentary assays were used as described below. The Biochemical PRX3 Inhibition Assay tests the ability of each compound to crosslink PRX3 in a simple, in vitro system. In the Cellular Activity Assay, we are testing the ability of compounds to kill SK-OV-3 ovarian cancer cells.
The Cellular Activity Assay measures the EC50 of each compound in human SK-OV-3 ovarian cancer cells TS to be taken into the cell, transported to the mitochondria, and crosslink PRX3.
The cytotoxicity of compounds was measured as described in Nelson et al. (2021) Antioxidants (Basel) 10, 150; Cunniff et al. (2015) PloS one 10, e0127310; and Newick et al. (2012)PloS one 7, e39404. SK-OV-3 is an adherent, epithelial, adenocarcinoma cell line obtained from ATCC (ref #: HTB-77). SK-OV-3 cells are resistant to the commonly used chemotherapeutics, cis-platinum and doxorubicin. For this PRX3 crosslinking assay, SK-OV-3 cells were plated in a 96-well plate. After 24 h recovery, the cells were treated for 48 hr with multiple concentrations of each compound ranging from 0.1-100 μM.
Cells were washed with PBS to remove dead cells and the remaining live cells were fixed with 3.0% formaldehyde and stained with 0.1% crystal violet. The amount of crystal violet was determined by reading the absorbance at 540 nm (crystal violet dye dissolved in 100% methanol) using a plate reader. […]

[2] = test system: Enterococcus hirae (ATCC #10541); assay: Antimicrobial Activity Assay (MIC); assay type: cell-based
Method: The overnight growth was then diluted into growth media to make a single solution of E. hirae with a final optical density at 600 nm=0.02 AU. A 20 mM stock solution of Thiostrepton in DMSO was made and used to make multiple dilutions of TS in DMSO. Each TS dilution (0.1 mL) was then added to a test tube containing 10 mL of the diluted E. hirae and grown at 37° C. overnight while shaking at 180 rpm. The next morning, each tube was visually inspected to determine if the cells grew. Final concentrations tested were 0.120, 0.090, 0.075, 0.060, 0.045, 0.030, and 0.015 μM TS. […] Three replicates were made on three separate days (n=9). […] For TS analogs, the dilute E. hirae was treated with 20 μM final concentration of each analog (three replicates each). […] DMSO was used as a positive control (complete cell growth) and 20 μM thiostrepton was used as a negative control.

578 cancer cells lines = details: of 578 cancer cell lines tested; cited from earlier work

For C=C(NC(=O)c1csc(N2CCC(NC(=O)CC3CCOCC3)CC2)n1)C(=O)NC(=C)C(=O)OC [Compound 51, Methyl 2-(2-(2-(4-(2-(tetrahydro-2H-pyran-4-yl)acetamido)piperidin-1-yl)thiazole-4-carboxamido)acrylamido)acrylate], the Solubility (Solubility Assay (HPLC)) was “+ (<0.1 mM)” and the EC50 [1] was 10 to 25 µM.
In the case of C=C(NC(=O)C(=C)NC(=O)c1csc(C2=N[C@@H]3c4csc(n4)[C@H]4NC(=O)c5csc(n5)[C@H]([C@](C)(O)[C@@H](C)O)NC(=O)[C@H]5CSC(=N5)/C(=C/C)NC(=O)[C@H]([C@@H](C)O)NC(=O)c5csc(n5)[C@]3(CC2)NC(=O)[C@H](C)NC(=O)C(=C)NC(=O)[C@H](C)NC(=O)[C@H]([C@@H](C)CC)N[C@@H]2C=Cc3c([C@H](C)O)cc(nc3[C@H]2O)C(=O)O[C@@H]4C)n1)C(N)=O [TS, Thiostrepton], the “TS concentrations at which complete growth was observed” value ([2]; E. hirae, overnight at 37° C., n=9) is reported as at most 0.030 µM and the MIC ([2]; Enterococcus hirae, ATCC10541, read-out: TS concentrations at which no growth was observed (MIC)) is reported as at least 0.045 µM.
For C=C(NC(=O)C(=C)NC(=O)c1csc(C2=N[C@@H]3c4csc(n4)[C@H]4NC(=O)c5csc(n5)[C@H]([C@](C)(O)[C@@H](C)O)NC(=O)[C@H]5CSC(=N5)/C(=C/C)NC(=O)[C@H]([C@@H](C)O)NC(=O)c5csc(n5)[C@]3(CC2)NC(=O)[C@H](C)NC(=O)C(=C)NC(=O)[C@H](C)NC(=O)[C@H]([C@@H](C)CC)N[C@@H]2C=Cc3c([C@H](C)O)cc(nc3[C@H]2O)C(=O)O[C@@H]4C)n1)C(N)=O [Thiostrepton (TS), Thiostrepton], the “number of tumor cell lines with meaningful efficacy” value (578 cancer cells lines) is given as 403.

Reference: US20260062407A1, “PEROXIREDOXIN 3 INHIBITORS AND METHODS OF USE FOR TREATING CANCER” (WAKE FOREST UNIVERSITY HEALTH SCIENCES, priority 2022, published 2026)
